# Laboratory results as given in patent US5622948A, “Pyrrole pyridazine and pyridazinone anti-inflammatory agents” (Syntex (U.S.A.) Inc., priority 1994, dated 1997).
# Values joined by “and” are separate entries in the source; they are usually repeats but may differ in a detail not shown here. Equal entries are not always repeated.
# Assays:
# COX II = target: T1, COX II (Homo sapiens, UniProt P35354); test: TxB2 production in human whole blood activated with lipopolysaccharide (COX II); assay type: cell-based; settings: 5 hr incubation with compound and 10 μg/ml LPS; RIA determination of TxB2; read-out: COX II IC50, inhibition of TxB2 production
# T1 sequence (P35354 18-604): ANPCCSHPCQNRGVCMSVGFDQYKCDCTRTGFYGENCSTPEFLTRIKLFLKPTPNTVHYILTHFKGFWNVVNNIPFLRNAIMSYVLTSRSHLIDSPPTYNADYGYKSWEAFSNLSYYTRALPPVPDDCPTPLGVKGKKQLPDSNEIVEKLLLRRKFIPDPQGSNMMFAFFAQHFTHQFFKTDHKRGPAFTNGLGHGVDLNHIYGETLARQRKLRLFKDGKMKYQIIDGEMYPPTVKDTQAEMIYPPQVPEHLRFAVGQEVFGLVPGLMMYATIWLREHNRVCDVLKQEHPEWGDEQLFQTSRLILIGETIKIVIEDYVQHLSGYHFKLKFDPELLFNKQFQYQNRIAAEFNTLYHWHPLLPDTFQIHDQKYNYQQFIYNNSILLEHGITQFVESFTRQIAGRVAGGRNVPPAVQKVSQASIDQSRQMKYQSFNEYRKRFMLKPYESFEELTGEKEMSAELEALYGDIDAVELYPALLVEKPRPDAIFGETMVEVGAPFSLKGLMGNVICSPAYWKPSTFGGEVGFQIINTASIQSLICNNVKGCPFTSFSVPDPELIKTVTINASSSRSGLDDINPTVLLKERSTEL
# [1] = system: adjuvant-induced arthritis; test: adjuvant-induced arthritis in the rat; assay type: in vivo
# COX I [2] = target: COX I (Homo sapiens, UniProt P23219); test: radiometric assay, COX I inhibition (human recombinant, baculovirus expressed, partially purified); assay type: biochemical; set-up: A 2 Kb fragment containing the coding region of COX I; made in house; host or cells: Sf9 insect cells, baculovirus (cDNA from Oxford Biomedical Research); settings: 10 min incubation with compound; 45 sec incubation with 20 μM AA; separation of radioactive products; read-out: COX I IC50
# Summary of the method: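 Partially purified baculovirus-expressed human enzyme preincubated with compound, 2 mM phenol (5 min) then 1 μM hematin (5 min). Reaction in Tris-HCl pH 7.9 with 20 μM 1-[14C]arachidonate for 45 s at room temperature, acid-stopped; oxygenated products isolated on Sep-Pak and counted by scintillation.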
# [3] = two week range finding toxicity study in cynomolgus monkeys; assay type: in vivo, cynomolgus monkey; settings: 10, 30, 100 and 300 mg/kg daily, two weeks
# Experimental: A two week range finding study in cynomolgus monkeys was carried out at daily doses of 10, 30, 100 and 300 mg/kg of Compound (16).
# COX I [4] = target: T2, COX I (Rattus norvegicus, UniProt Q63921); test: TxB2 production in rat whole blood activated with A23187; assay type: cell-based; settings: 15 min incubation; 30 min activation with A23187; EIA determination of TxB2; read-out: COX I IC50, inhibition of TxB2 production
# T2 construct: Rat whole blood; from tissue; host or cells: rat whole blood
# T2 sequence (Q63921 27-602): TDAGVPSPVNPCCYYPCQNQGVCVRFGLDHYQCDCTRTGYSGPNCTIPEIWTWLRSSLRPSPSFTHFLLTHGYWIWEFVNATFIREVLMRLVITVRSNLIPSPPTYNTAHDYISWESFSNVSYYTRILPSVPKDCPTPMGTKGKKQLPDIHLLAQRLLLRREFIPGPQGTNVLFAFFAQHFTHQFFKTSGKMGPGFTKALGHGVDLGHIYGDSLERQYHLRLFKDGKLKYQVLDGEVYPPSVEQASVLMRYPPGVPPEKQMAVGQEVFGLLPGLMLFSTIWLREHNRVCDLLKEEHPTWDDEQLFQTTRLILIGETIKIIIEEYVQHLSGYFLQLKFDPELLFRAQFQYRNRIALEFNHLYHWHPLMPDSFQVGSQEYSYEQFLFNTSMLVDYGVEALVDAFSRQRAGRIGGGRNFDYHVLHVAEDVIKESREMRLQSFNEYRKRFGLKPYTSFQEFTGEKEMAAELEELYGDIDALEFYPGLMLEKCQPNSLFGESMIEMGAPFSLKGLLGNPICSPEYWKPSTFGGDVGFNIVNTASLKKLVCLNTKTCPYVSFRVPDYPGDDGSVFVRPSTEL
# Experimental: A summary of activities of Compound (16) against COX I and COX II in cell-free enzyme preparations and whole cells is presented in Table 1. The following abbreviations are used: AA is arachidonic acid, IL-1 is interleukin 1, PMA is phorbol myristate acetate, A23187 is a calcium ionophore (Sigma), BSA is bovine serum albumin and LPS is a lipopolysaccharide (Sigma).
# Rat whole blood 15 min incubation with Compound (16)
# EIA determination of TxB2
# [5] = system: carrageenan-induced paw edema; test: Carrageenan-induced paw edema in the rat; assay type: in vivo; settings: oral
# Experimental: Carrageenan-induced paw edema in the rat has been used as the primary in vivo screen for anti-inflammatory activity of most NSAIDs.
# Over a series of assays, in which Compound (16), suspended in SSV, was administered orally to rats 1 hour prior to injection of carrageenan, Compound (16) inhibited carrageenan-induced paw edema (ED30 =1.1±1.0 mg/kg).
# Chain of COX I (Homo sapiens, UniProt P23219) (P23219 24-599): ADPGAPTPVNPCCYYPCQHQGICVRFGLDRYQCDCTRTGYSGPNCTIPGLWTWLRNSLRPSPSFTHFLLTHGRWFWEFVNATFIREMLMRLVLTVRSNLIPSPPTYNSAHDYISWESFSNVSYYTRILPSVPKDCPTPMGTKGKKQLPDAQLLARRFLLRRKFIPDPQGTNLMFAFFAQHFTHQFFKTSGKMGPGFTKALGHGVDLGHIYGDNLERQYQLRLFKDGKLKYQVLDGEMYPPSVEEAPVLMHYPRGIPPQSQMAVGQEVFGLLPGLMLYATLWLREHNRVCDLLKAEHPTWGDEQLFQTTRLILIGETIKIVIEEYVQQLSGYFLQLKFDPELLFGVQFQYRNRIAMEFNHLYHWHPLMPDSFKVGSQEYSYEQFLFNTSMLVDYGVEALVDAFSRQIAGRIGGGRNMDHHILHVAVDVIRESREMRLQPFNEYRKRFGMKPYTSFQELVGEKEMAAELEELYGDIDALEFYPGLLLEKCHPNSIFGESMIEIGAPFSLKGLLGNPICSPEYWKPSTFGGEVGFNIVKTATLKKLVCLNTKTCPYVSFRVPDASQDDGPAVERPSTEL
smiles,measurement,setting,value
"Cc1cc(Cc2ccc(=O)[nH]n2)n(C)c1C(=O)c1ccc(Cl)cc1 [Compound 16, 6-[1,4-dimethyl-5-(4chloro-benzoyl)-1H-pyrrol-2-ylmethyl]-2H-pyridazin-3-one]",IC50,COX II,4.7 µM and 4.56 µM
same,ED40,"[1]; Rattus norvegicus, po, 408 h, based on the three assays",3.2 ± 2.6 mg/kg
same,inhibition of adjuvant-induced arthritis,"[1]; first test, 2 mg/kg/day, oral bid 17 days",31%
same,inhibition of adjuvant-induced arthritis,"[1]; first test, 5 mg/kg/day, oral bid 17 days",66%
same,inhibition of adjuvant-induced arthritis,"[1]; second test, 2 mg/kg/day",43%
same,inhibition of adjuvant-induced arthritis,"[1]; second test, 5 mg/kg/day",48%
same,inhibition of adjuvant-induced arthritis,"[1]; second test, 10 mg/kg/day",52%
same,maximum inhibition of adjuvant-induced arthritis,"[1]; third test, 100 mg/kg",80%
same,IC50,COX I [2],> 1000 µM
same,"clinical signs, clinical chemistry, gross pathology or histopathology",[3],No abnormalities were observed
same,IC50,COX I [4],6 µM and 5 µM and 4 µM
same,ED30,"[5]; Rattus norvegicus, in SSV, 1 hour prior to carrageenan, series of assays, read-out: ED30, inhibition of carrageenan-induced paw edema",1.1 ± 1 mg/kg
same,inhibition of paw edema at the appropriate dose,[5]; maximum amount achievable with NSAIDs,~ 60%
